# Measured values published in US9682966B2, “Kappa opioid ligands” (The Scripps Research Institute, priority 2012, dated 2017).
# Target: kappa opioid receptor (OPRK1) (Homo sapiens (Human), UniProt P41145)
# Experiment: OPRK1 antagonist assay (b-arrestin-2-TEV / b-lactamase reporter, EC80 U-50488 challenge)
# Type: cell-based
# Conditions: % inhibition to which the printed IC50 value refers, if other than 50%
# Chain of kappa opioid receptor (OPRK1) (P41145 whole entry): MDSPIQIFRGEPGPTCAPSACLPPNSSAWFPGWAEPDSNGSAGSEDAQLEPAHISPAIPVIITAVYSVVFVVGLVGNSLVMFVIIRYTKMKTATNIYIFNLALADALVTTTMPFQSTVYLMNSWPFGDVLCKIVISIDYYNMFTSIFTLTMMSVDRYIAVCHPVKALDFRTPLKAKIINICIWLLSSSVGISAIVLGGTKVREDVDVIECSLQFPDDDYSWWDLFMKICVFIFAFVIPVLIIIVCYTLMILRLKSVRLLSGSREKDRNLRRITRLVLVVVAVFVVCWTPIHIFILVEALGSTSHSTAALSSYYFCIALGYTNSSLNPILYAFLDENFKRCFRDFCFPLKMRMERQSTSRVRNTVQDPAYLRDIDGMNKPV
row,% inhib if other than 50% [%],Structure (SMILES)
1,80,COC(=O)c1cc(Br)cnc1N1CCC(NCCO)CC1 [compound 6]

# Same assay, conditions: OPRK1 antagonist assay vs EC80 U-50488
row,Structure (SMILES),IC50 [µM]
1,COC(=O)c1cnc(N2CCC(N(C(=O)OC(C)(C)C)C3CCCCC3)CC2)c(Br)c1 [C44],> 10
2,COC(=O)c1cnc(N2CCC(NC3CCCCC3)CC2)c(NS(C)(=O)=O)c1 [C40],> 10
3,CCc1noc(-c2cc3cc(C)ccc3nc2N2CC[C@H](NC3CCCCC3)[C@H](OC)C2)n1 [compound 330],0.0049
4,Cc1ccc2nc(N3CCC(NC4CCOCC4)CC3)c(-c3ccc(C)nn3)cc2c1 [compound 441],0.392
5,Cc1ccc2nc(N3CCC(NC4CCCC4)CC3)c(-c3ccc(C)nn3)cc2c1 [compound 445],0.055
6,O=C(c1ccccc1)N1CCC(N[C@@H]2CCCC[C@H]2O)CC1 [C10],> 10
7,Cc1ccc2nc(N3CCC(N[C@H](C)C(C)C)CC3)c(-c3noc(C)n3)cc2c1 [compound 524],0.057
8,Cc1cnc(N2CCC(NCC(C)C)CC2)c(-c2nc(C3CC3)no2)c1 [compound 397],1.28
9,COC1CN(c2nc3ccc(C)cc3cc2-c2noc(C)n2)CCC1NC1CCCCC1 (centres unmarked) [compound 314],0.002
10,COC(=O)c1cc(Br)cnc1N1CCC(N(C(C)=O)C2CCCCC2)C(OC(C)=O)C1 (centres unmarked) [C48],> 10
11,CCO/N=C/c1cc2cc(C)ccc2nc1N1CCC(NC2CCCCC2)CC1 [compound 460],0.141
12,COC(=O)c1cnc(N2CC[C@@H](NC3CCCCC3)[C@H](O)C2)c(Br)c1 [compound 132],4
13,CO[C@H]1CN(c2ncc(C)cc2-c2nc(C)no2)CC[C@H]1N(C1CCCC1)C1CCCC1 [compound 339],0.029
14,CO[C@H]1CN(c2nc3ccccc3nc2-c2nc(C)no2)CC[C@H]1NC1CCCCC1 [compound 333],0.0066
15,CCC(CC)NC1CCN(c2nc3ccc(F)cc3cc2-c2noc(C)n2)CC1 [compound 490],0.248
16,CCOC(=O)c1c(C(F)(F)F)ccnc1N1CCC(NC2CCCCC2)CC1 [C26],> 10
17,COC(=O)c1cc(Br)cnc1N1CCC(NC(=O)OC(C)(C)C)CC1 [C2],> 10
18,Cc1ccc2nc(N3CCC(NC4CCCC4)CC3)c(-c3noc(C)n3)cc2c1 [compound 414],0.009
19,COC(=O)c1cc(NC(=O)CN)cnc1N1CCC(NC2CCCCC2)CC1 [C41],> 10
20,Cc1cnc(N2CCC(NC3CCOCC3)CC2)c(-c2nc(C3CC3)no2)c1 [compound 396],2.26
21,COC(=O)c1cc(Br)cnc1N1CCC(N)CC1 [C1],> 10
22,CCc1cnc(N2CCC(NC3CCCCC3)C(OC)C2)c(-c2nc(C)no2)c1 (centres unmarked) [compound 379],0.525

row,Structure (SMILES),IC50 [µM]
1,Cc1ccc2nc(NCCCNC3CCOCC3)c(-c3nc(C)no3)cc2c1 [C85],> 10
2,COC1CN(c2ncc(C)cc2-n2cc(C)cn2)CCC1NC1CCCCC1 (centres unmarked) [C92],58
3,Cc1cc(Cl)nc(N2CCC(N[C@@H]3CCCC[C@H]3O)CC2)c1C#N [C11],> 10
4,COC1CN(c2ncc(C)cc2-c2cc(C)no2)CCC1NC1CCCCC1 (centres unmarked) [compound 380],0.128
5,COC(=O)c1cc(Br)cnc1N1CCC(NCc2ccccc2OC)CC1 [C23],> 10
6,Cc1nc(-c2c(N3CCC(NC4CCOCC4)CC3)nc3ccccc3c2C)no1 [compound 447],1.15
7,CO[C@H]1CN(c2nnc(C)cc2-c2nc(C3CC3)no2)CC[C@H]1NC1CCCCC1 [compound 456],0.006
8,CC(=O)c1cc(-c2ccccc2)cnc1N1CCC(NC2CCCCC2)C(CO)C1 (centres unmarked) [C64],> 10
9,CCc1ccc(-c2cc3cc(C)ccc3nc2N2CCC(NC3CCCCC3)CC2)nn1 [compound 455],1.64
10,CO[C@@H]1CN(c2nc3ccccc3nc2-c2nc(C)no2)CC[C@@H]1NC1CCCCC1 [compound 334],0.161
11,O=Cc1cc(Br)cnc1N1CCC(NC2CCCCC2)CC1 [C45],> 10
12,Cc1ccc2nc(N3CCC(NC4(C)CCOCC4)CC3)c(-c3noc(C)n3)cc2c1 [compound 417],0.105
13,COC(=O)c1cc(C2CC2)cnc1N1CCC(NC2CCCCC2)CC1 [C15],> 10
14,CO[C@H]1CN(c2nc3ccc(C)cc3cc2-c2nc(C3CC3)no2)CC[C@H]1NC1CCCCC1 [compound 337],0.00073
15,CCN(CC)C(=O)c1cc(Br)cnc1N1CCC(NC2CCCCC2)CC1 [C18],> 10
16,COC(=O)c1cc(Br)cnc1N1CCC(NCc2ccccc2O)CC1 [C22],> 10
17,CO[C@H]1CN(c2ncc(C)cc2-c2nc(C3CC3)no2)CC[C@H]1NC1CCCCC1 [compound 398],0.018
18,Cc1ccc2nc(N3CCC(NC(C)CC(C)C)CC3)c(-c3nc(C)no3)cc2c1 (centres unmarked) [C72],> 10
19,Cc1cnc(-c2cc3ccccc3nc2N2CCC(NC3CCOCC3)CC2)o1 [C81],> 10
20,Cc1noc(-c2cc3c(nc2N2CC[C@@H](NC4CCCCC4)[C@H](O)C2)CCCC3)n1 [compound 192],0.199
21,CCOC(=O)CCNC1CCN(c2nc3ccc(C)cc3cc2-c2nc(C)no2)CC1 [compound 407],0.341
22,CO[C@@H]1CN(c2nc(C)c(C)cc2-c2nc(C)no2)CC[C@@H]1NC1CCCC1 [compound 346],0.137

row,Structure (SMILES),IC50 [µM]
1,COC(=O)c1cc(NC(=O)C(C)(C)C)cnc1N1CCC(NC2CCCCC2)CC1 [C37],> 10
2,CCC(CC)NC1CCN(c2nc3ccc(C)cc3cc2-c2noc(C)n2)CC1 [compound 416],0.004
3,CO[C@@H]1CN(c2nc(C)ccc2-c2ccc(C)nn2)CC[C@@H]1NC1CCCCC1 [compound 427],4.6
4,Cc1noc(-c2cc3cc(C)c(C)cc3nc2N2CCC(NC3CCOCC3)CC2)n1 [C90],> 10
5,CO[C@H]1CN(c2nc(C)ccc2-c2noc(C)n2)CC[C@H]1NC1CCCCC1 [compound 429],0.214
6,Cc1cnc(N2CCC(NCC(C)C)CC2)c(-c2cc(C)no2)c1 [compound 381],0.86
7,CO[C@H]1CN(c2nc(C)ccc2-c2ccc(C)nn2)CC[C@H]1NC1CCCCC1 [compound 426],1.97
8,Cc1ccc2nc(N3CCC(NC4CCCCC4CO)CC3)c(-c3nc(C)no3)cc2c1 (centres unmarked) [compound 368],0.007
9,O=C(O)c1cc(Br)cnc1N1CCC(NC2CCCCC2)CC1 [C29],> 10
10,Cc1ccc2nc(N3CCC(NC4CCC[C@@H]4O)CC3)c(-c3noc(C)n3)cc2c1 (some centres unmarked) [compound 418],0.05
11,Cc1ccc2nc(N3CCC(NC(C)C)CC3)c(-c3nc(C)no3)cc2c1 [C73],> 10
12,COC(=O)c1cc(Br)cnc1N1CCC(OC2CCCCC2O)CC1 (centres unmarked) [C50],> 10
13,CO[C@H]1CN(c2nc3ccccc3cc2-c2ccc(C)nn2)CC[C@H]1NC1CCCCC1 [compound 344],0.0168
14,COC1CN(c2nc3ccccc3cc2-c2ncc(C)o2)CCC1NC1CCCCC1 (centres unmarked) [C79],> 10
15,CO[C@H]1CN(c2ncc(C)cc2-n2ccc(C)n2)CC[C@H]1NC1CCCCC1 [compound 366],0.019
16,Cc1nc(-c2cc3cc(F)ccc3nc2N2CCC(NC3CCCCC3)CC2)no1 [compound 489],0.616
17,Cc1cc(-c2noc(C)n2)c(N2CCC(NC3CCCCC3)CC2)nn1 [compound 420],0.003
18,CCC(CC)NC1CCN(c2nc3ccccc3c(C)c2-c2noc(C)n2)CC1 [compound 449],0.129
19,CC(=O)c1cc(-c2ccccc2)cnc1N1CC[C@@H](NC2CCCCC2)[C@H](O)C1 [C65],> 10
20,Cc1ccc2nc(NCCCNC3CCCCC3)c(-c3nc(C)no3)cc2c1 [C86],> 10
21,Cc1ccc2nc(N3CCC(NC4CCCCC4)CC3)c(-c3ccc(C)nn3)cc2c1 [compound 438],0.075
22,FC(F)(F)c1cc(Br)cnc1N1CCC(NC2CCCCC2)CC1 [C25],> 10

row,Structure (SMILES),IC50 [µM]
1,O=Cc1cc(Br)cnc1N1CCC(NC2CCCCC2)C(O)C1 (centres unmarked) [C47],> 10
2,CC(=O)c1cc(C2CC2)cnc1N1CCC(NC2CCCCC2)C(CO)C1 (centres unmarked) [C63],> 10
3,Cc1nc(-c2c(N3CCC(NC4CCCC[C@@H]4O)CC3)nc3ccccc3c2C)no1 (some centres unmarked) [compound 446],0.072
4,c1cnnc(-c2cc3ccccc3nc2N2CCC(NC3CCCCC3)CC2)c1 [compound 464],0.087
5,Cc1ccc2nc(N3CCC(NCC(C)C)CC3)c(-c3ccc(C)nn3)cc2c1 [compound 442],0.324
6,CCCCOC(=O)c1cc(Br)cnc1N1CCC(NC2CCCCC2)CC1 [C32],> 10
7,COC(=O)c1cc(NC(=O)CCN(C)C)cnc1N1CCC(NC2CCCCC2)CC1 [C33],> 10
8,COC(=O)c1cnc(N2CCC(NC3CCCCC3)C(CO)C2)c(Br)c1 (centres unmarked) [compound 102],13
9,Cc1cnc(N2CCC(NC3CCOCC3)CC2)c(-c2nc(C)no2)c1 [compound 389],0.153
10,COC1CN(c2nc3c(C)cc(C)cc3cc2-c2nc(C)no2)CCC1NCC(C)C (centres unmarked) [compound 365],0.008
11,Cc1ccc2nc(N3CCC(NC(=O)OC(C)(C)C)CC3)c(-c3nc(C)no3)cc2c1 [C71],> 10
12,COC(=O)c1cc(Br)cnc1N1CCC(NC2CCC(O)CC2)CC1 (centres unmarked) [C6],> 10
13,CCc1noc(-c2cc3cc(C)ccc3nc2N2CC[C@@H](NC3CCCCC3)[C@H](O)C2)n1 [compound 335],0.113
14,Cc1ccc2nc(N3CCC(N)CC3)c(-c3nc(C)no3)cc2c1 [C82],> 10
15,CCc1ccc(-c2cc3cc(C)ccc3nc2N2CCC(NC3CCCC[C@@H]3O)CC2)nn1 (some centres unmarked) [compound 454],0.783
16,CO/N=C/c1cc2cc(C)ccc2nc1N1CCC(NC2CCCCC2)CC1 [compound 459],0.015
17,CO[C@@H]1CN(c2ncc(C)cc2-n2ccc(C)n2)CC[C@@H]1NC1CCCCC1 [compound 383],1.16
18,CO[C@@H]1CN(c2nc3ccc(C)cc3cc2-c2nc(C)no2)CC[C@@H]1NC1CCCC1 [compound 347],0.032
19,Cc1ccc2nc(N3CCC(NC4CCCC[C@@H]4O)CC3)c(-c3ccc(C)nn3)cc2c1 (some centres unmarked) [compound 443],0.033
20,Cc1cc(-c2noc(C)n2)c(N2CCC(NCC(C)C)CC2)nn1 [compound 431],0.022
21,CO[C@@H]1CN(c2nc3ccc(C)cc3cc2-c2nc(C3CC3)no2)CC[C@@H]1NC1CCCC1 [compound 340],0.006
22,Cc1cnc(N2CCC(NCC(C)C)CC2)c(-c2ccc(C)nn2)c1 [C93],10.2
